US6117841A, “Substituted peptidylamine calcium channel blockers” (Warner-Lambert Company, priority 1999, dated 2000)
Read-outs that look alike come from different tables or passages of the source.

Biological target: T1, N-type Ca^2+ Channel (Homo sapiens, UniProt Q00975)
T1 construct: host or cells: IMR-32 cells differentiated with dibutyryl cAMP and bromodeoxyuridine
Assay: Measurement of N-type Ca2+ channel blocking potencies in IMR-32 cells using the fluorescent Ca2+ indicator Indo-1
Type: cell-based
How it was run: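 IMR-32 cells were differentiated 7–13 days (1 mM dibutyryl cAMP, 2.5 µM BrdU) and Indo-1-loaded. They were preincubated 10 min at 30 °C with compound and 5 µM nitrendipine in HEPES/Tris pH 7.4 HBSS with 0.5% BSA, then KCl/CaCl2-depolarized. The peak-minus-basal 400/490 nm emission ratio gave IC50 by four-parameter logistic fit.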

[1] = IMR-32 cells, 5 μM nitrendipine, Examples 116-140, read-out: IMR 32% of Blockade @
[2] = IMR-32 cells, K+ depolarization, 5 μM nitrendipine to block L-type channels, read-out: IMR 32 IC50
[3] = 1 μM, IMR-32 cells, 5 μM nitrendipine
[4] = 10 μM, IMR-32 cells, 5 μM nitrendipine

T1 sequence (Q00975 whole entry): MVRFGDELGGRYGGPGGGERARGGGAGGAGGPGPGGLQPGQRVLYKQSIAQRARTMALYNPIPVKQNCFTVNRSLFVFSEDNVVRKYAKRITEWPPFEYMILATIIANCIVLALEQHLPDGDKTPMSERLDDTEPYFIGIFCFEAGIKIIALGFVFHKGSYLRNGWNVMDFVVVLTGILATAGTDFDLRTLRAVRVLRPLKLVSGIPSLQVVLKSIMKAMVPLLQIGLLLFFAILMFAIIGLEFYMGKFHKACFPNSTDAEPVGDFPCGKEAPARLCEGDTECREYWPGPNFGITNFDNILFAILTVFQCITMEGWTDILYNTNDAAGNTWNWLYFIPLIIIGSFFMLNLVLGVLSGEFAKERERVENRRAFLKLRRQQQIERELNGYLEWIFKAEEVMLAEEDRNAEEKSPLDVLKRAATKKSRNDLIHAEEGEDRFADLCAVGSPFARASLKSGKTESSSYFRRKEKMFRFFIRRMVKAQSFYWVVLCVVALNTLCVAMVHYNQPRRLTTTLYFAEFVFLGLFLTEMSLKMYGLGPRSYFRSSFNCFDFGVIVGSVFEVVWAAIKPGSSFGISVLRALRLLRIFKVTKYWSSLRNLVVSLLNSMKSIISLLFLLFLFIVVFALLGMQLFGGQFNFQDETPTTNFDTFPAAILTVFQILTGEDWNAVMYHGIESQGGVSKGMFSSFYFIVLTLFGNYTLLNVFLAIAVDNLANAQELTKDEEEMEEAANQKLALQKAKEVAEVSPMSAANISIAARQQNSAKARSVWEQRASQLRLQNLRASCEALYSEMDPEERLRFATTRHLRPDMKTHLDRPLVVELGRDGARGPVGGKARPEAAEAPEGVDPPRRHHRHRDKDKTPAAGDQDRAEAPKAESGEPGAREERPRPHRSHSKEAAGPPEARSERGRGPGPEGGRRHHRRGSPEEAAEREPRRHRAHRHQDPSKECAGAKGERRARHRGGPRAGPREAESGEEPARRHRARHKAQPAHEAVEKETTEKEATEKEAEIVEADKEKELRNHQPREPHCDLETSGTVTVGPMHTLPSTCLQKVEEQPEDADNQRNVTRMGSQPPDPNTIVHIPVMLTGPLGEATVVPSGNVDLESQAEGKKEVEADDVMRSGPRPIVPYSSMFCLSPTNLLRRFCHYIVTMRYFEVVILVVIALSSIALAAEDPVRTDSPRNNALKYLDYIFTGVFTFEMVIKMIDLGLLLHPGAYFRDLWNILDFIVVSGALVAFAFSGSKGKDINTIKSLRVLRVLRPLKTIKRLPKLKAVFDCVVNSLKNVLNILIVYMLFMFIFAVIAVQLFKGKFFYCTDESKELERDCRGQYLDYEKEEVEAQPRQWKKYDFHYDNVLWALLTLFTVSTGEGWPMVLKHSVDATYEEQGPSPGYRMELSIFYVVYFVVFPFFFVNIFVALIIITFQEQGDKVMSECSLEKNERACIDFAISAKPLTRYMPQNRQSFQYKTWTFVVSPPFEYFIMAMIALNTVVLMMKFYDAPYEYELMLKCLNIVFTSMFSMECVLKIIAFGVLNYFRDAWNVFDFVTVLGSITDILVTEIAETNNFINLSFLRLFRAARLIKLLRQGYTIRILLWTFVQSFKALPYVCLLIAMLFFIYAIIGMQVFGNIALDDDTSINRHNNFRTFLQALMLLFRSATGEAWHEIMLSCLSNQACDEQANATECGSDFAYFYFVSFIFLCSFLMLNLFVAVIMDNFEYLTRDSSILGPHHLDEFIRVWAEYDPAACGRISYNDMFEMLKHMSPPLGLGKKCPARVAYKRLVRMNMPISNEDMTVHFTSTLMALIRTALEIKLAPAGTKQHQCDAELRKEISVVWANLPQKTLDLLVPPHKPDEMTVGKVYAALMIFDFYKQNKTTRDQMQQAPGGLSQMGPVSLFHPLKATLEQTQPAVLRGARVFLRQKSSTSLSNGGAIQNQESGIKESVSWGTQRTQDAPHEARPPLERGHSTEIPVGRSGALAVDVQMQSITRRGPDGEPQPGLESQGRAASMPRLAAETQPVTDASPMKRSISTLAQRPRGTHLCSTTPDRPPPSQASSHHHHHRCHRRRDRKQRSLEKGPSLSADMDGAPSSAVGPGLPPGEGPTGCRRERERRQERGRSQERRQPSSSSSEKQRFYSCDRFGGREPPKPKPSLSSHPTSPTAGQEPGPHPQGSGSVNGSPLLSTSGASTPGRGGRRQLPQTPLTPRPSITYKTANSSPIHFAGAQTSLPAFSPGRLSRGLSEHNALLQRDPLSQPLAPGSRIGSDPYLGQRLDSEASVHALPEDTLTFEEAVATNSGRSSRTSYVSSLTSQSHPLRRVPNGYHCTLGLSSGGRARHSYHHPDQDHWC
T1 sequence (P54284 whole entry partner): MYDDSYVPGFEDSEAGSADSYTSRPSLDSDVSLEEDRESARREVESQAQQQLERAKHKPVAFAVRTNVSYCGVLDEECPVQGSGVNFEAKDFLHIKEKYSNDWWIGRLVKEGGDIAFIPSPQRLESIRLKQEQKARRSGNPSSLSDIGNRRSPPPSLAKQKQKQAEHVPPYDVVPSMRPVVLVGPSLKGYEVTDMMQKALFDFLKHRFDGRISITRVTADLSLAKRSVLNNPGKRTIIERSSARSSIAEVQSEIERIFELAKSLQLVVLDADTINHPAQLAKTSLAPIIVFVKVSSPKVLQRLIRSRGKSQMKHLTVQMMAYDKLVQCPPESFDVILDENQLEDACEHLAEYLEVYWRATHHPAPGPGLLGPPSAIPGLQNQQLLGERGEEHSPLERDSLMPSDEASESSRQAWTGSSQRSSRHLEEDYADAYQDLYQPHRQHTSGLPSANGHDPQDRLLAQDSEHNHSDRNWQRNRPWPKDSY
T1 sequence (P54289 25-946 partner limits assumed): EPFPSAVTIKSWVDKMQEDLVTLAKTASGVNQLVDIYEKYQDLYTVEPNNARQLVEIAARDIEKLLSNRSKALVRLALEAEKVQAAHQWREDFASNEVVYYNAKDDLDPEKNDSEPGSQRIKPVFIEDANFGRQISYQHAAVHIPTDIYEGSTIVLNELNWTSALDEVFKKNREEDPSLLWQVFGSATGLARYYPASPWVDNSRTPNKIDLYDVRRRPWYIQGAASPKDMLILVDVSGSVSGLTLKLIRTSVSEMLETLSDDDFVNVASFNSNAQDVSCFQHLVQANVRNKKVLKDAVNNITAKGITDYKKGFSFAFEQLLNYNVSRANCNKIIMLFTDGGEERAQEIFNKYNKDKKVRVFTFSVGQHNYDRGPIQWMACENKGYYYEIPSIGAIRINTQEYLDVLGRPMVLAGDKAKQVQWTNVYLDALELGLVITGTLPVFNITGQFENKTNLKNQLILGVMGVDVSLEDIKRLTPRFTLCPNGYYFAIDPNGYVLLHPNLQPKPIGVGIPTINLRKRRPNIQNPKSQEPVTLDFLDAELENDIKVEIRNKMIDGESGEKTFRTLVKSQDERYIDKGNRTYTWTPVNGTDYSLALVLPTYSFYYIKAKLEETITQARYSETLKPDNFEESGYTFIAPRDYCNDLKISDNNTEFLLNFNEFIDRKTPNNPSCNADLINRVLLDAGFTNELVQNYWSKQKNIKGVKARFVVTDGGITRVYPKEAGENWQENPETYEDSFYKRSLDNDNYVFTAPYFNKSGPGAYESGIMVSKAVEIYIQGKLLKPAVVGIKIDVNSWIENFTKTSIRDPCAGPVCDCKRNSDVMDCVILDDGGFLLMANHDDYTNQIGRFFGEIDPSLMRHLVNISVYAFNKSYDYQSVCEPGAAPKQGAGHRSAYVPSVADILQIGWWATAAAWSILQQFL
T1 sequence (P54289 947-1103 partner limits assumed): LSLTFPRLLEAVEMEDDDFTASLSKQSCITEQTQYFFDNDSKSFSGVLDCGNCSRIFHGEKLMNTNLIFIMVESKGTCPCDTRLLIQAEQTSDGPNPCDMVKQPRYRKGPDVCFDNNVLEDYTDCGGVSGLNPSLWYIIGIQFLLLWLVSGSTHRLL

**Q.** `CC(C)C[C@H](NC1CCOCC1)C(=O)N[C@@H](Cc1ccc(OCc2ccccc2)cc1)C(=O)NCCN1CCOCC1` (relative stereo) [Example 127, [S-(R*,R*)]-4-Methyl-2-(tetrahydropyran-4-yl-amino)-pentanoic acid [2-(4-benzyloxy-phenyl)-1-(2-morpholin4-yl-ethylcarbamoyl)-ethyl]-amide] was tested. Which IC50 [1] did it give?
**A.** Its IC50 is 7500 nM.

**Q.** “[S-(R*,R*)]-4-Methyl-2-(tetrahydropyran-4-yl-amino)-pentanoic acid [2-(4-benzyloxy-phenyl)-1-(2-pyrrolidine-1-yl-ethylcarbamoyl]-amide [Example 130]” was tested. Which IC50 [1] did it give?
**A.** Its IC50 is 6500 nM.

**Q.** With `CC(C)C[C@@H](C(=O)N[C@@H](Cc1ccc(OCc2ccccc2)cc1)C(=O)NCCN1CCCCC1)N(C)C1CCCCC1` (relative stereo) [Example 21, [S-(R*,R*)]-2-(Cyclohexyl-methyl-amino)4-methyl-pentanoic acid [2-(4-benzyloxy-phenyl)-1-(2-piperidin-1-yl-ethylcarbamoyl)-ethyl]-amide] as the compound, how does the IC50 [2] read?
**A.** Its IC50 is 880 nM.

**Q.** Which IC50 [2] does the source give for `CCC(COC)NC(=O)[C@H](Cc1ccc(OCc2ccccc2)cc1)NC(=O)[C@H](CC(C)C)NC1CCOCC1` (relative stereo) [Example 75, [S-(R*,R*)]-4-Methyl-2-(tetrahydro-pyran-4-ylamino)-pentanoic acid [2-(4-benzyloxy-phenyl)-1-(1-methoxymethyl-propylcarbamoyl)-ethyl]-amide] here?
**A.** The IC50 was 2400 nM.

**Q.** For `CC(C)C[C@H](NCc1ccccc1)C(=O)N[C@@H](Cc1ccc(OCc2ccccc2)cc1)C(=O)OC(C)(C)C` (relative stereo) [Example 33, [S-(R*,R*)]-2-(2-Benzylamino-4-methyl-pentanoylamino)-3-(4-benzyloxy-phenyl)-propionic acid tert-butyl ester], which “IMR 32 % of Blockade @ 1 μM” value [3] is on record?
**A.** The value was 52%.

**Q.** And the “IMR 32 % of Blockade @ 10 μM” value [4]?
**A.** Its value is 95%.

**Q.** `CC(C)C[C@@H](C(=O)N[C@@H](Cc1ccc(OCc2ccccc2)cc1)C(=O)NC(C)(C)C)N(C)C(C)CO` (mixture of isomers) [Example 88, [S-[R*,R*,(RS)]]-2-[(2-Hydroxy-1-methyl-ethyl)-methyl-amino]-4-methyl-pentanoic acid [2-(4-benzyloxy-phenyl)-1-tert-butylcarbamoyl-ethyl]-amide] was tested. Which “IMR 32 % of Blockade @ 1 μM” value [3] did it give?
**A.** Its value is 30%.

**Q.** How did the IC50 [2] turn out when `CC(C)CCN(C)[C@@H](CC(C)C)C(=O)N[C@@H](Cc1ccc(OCc2ccccc2)cc1)C(=O)N1CCC(O)CC1` (relative stereo) [Example 65, [S-(R*,R*)]-4-Methyl-2-[methyl-(3-methyl-butyl)-amino]-pentanoic acid [1-(4-benzyloxy-benzyl)-2-(4-hydroxy-piperidin-1-yl)-2-oxo-ethyl]-amide] was run?
**A.** Its IC50 is 1100 nM.

**Q.** Which IC50 [2] does the source give for `CC(C)C[C@@H](C(=O)N[C@@H](Cc1ccc(OCc2ccccc2)cc1)C(=O)NCCN1CCCCC1)N(C)CC1CCCCC1` (relative stereo) [Example 27, [S-(R*,R*)]-2-(Cyclohexylmethyl-methyl-amino)-4-methyl-pentanoic acid [2-(4-benzyloxy-phenyl)-1-(2-piperidin-1-yl-ethylcarbamoyl)-ethyl]-amide] here?
**A.** The IC50 was 1300 nM.

**Q.** `CC(C)C[C@@H](C(=O)N[C@@H](Cc1ccc(OCc2ccccc2)cc1)C(=O)NC(C)(C)C)N1CCCCC1` (relative stereo) [Example 99, [S-(R*,R*)]-4-Methyl-2-piperidin-1-yl-pentanoic acid [2-(4-benzyloxy-phenyl)-1-tert-butylcarbamoyl-ethyl]-amide] was tested. Which IC50 [2] did it give?
**A.** Its IC50 is 1400 nM.

**Q.** How did the IC50 [2] turn out when `CC(C)C[C@@H](C(=O)N[C@@H](Cc1ccc(OCc2ccccc2)cc1)C(=O)NC(C)(C)C)N(C)C1CCCCC1` (relative stereo) [Example 19, [S-(R*,R*)]-2-(Cyclohexyl-methyl-amino)-4-methyl-pentanoic acid [2-(4-benzyloxy-phenyl)-1-tert-butylcarbamoyl-ethyl]-amide] was run?
**A.** The IC50 was 200 nM.

**Q.** With `CC(C)C[C@H](NC1CCOCC1)C(=O)N[C@@H](Cc1ccc(OCc2ccccc2)cc1)C(=O)NCCN1CCCCC1` (relative stereo) [Example 77, [S-(R*,R*)]-4-Methyl-2-(tetrahydro-pyran-4-ylamino)-pentanoic acid [2-(4-benzyloxy-phenyl)-1-(2-piperidin-1-yl-ethylcarbamoyl)-ethyl]-amide] as the compound, how does the IC50 [2] read?
**A.** The IC50 was 2600 nM.

**Q.** How did the IC50 [2] turn out when `CC(C)C[C@H](NC1CCOCC1)C(=O)N[C@@H](Cc1ccc(OCc2ccccc2)cc1)C(=O)N1CCCCC1` (relative stereo) [Example 79, [S-(R*,R*)]-4-Methyl-2-(tetrahydro-pyran-4-ylamino)-pentanoic acid [1-(4-benzyloxy-benzyl)-2-oxo-2-piperidin-1-yl-ethyl]-amide] was run?
**A.** The IC50 was 2100 nM.

**Q.** For `CC(C)CCN(C)[C@@H](CC(C)C)C(=O)N[C@@H](Cc1ccc(OCc2ccccc2)cc1)C(=O)N1CCSCC1` (relative stereo) [Example 61, [S-(R*,R*)]-4-Methyl-2-[methyl-(3-methyl-butyl)-amino]-pentanoic acid [1-(4-benzyloxy-benzyl)-2-oxo-2-thiomorpholin-4-yl-ethyl]-amide], which IC50 [2] is on record?
**A.** The IC50 was 400 nM.

**Q.** How did the IC50 [2] turn out when `CC(C)C[C@@H](C(=O)N[C@@H](Cc1ccc(OCc2ccccc2)cc1)C(=O)NC(C)(C)C)N(C)Cc1ccc(Br)cc1` (relative stereo) [Example 81, [S-(R*,R*)]-2-[(4-Bromo-benzyl)-methyl-amino]4-methyl-pentanoic acid [2-(4-benzyloxy-phenyl)-1-tert-butylcarbamoyl-ethyl]-amide] was run?
**A.** The IC50 was 160 nM.

**Q.** How did the “IMR 32 % of Blockade @ 1 μM” value [3] turn out when `CN[C@@H](CC(C)C)C(=O)N[C@@H](Cc1ccc(OCc2ccccc2)cc1)C(=O)N1CCN(Cc2ccccc2)CC1` (relative stereo) [Example 43, [S-(R*,R*)]-4-Methyl-2-methylamino-pentanoic acid [1-(4-benzyloxy-benzyl)-2-(4-benzyl-piperazin-1-yl)-2-oxo-ethyl]-amide] was run?
**A.** Its value is 51%.

**Q.** What about the “IMR 32 % of Blockade @ 10 μM” value [4] of the same compound?
**A.** Its value is 96%.

**Q.** For `CC(C)C[C@@H](C(=O)N[C@@H](Cc1ccc(OCc2ccccc2)cc1)C(=O)N1CCN(C)CC1)N(C)C` (relative stereo) [Example 6, [S-(R*,R*)]-2-Dimethylamino-4-methyl-pentanoic acid [1-(4-benzyloxy-benzyl)-2-(4-methyl-piperazin-1-yl)-2-oxo-ethyl]-amide], which “IMR 32 % of Blockade @ 1 μM” value is on record?
**A.** Its value is 16%.

**Q.** And the “IMR 32 % of Blockade @ 10 μM” value?
**A.** Its value is 31%.

**Q.** With `CC(C)C[C@@H](C(=O)N[C@@H](Cc1ccc(OCc2ccccc2)cc1)C(=O)NCCc1ccccn1)N(C)C` (relative stereo) [Example 133, [S-(R*,R*)]-2-Dimethylamino-4-methyl-pentanoic acid [2-(4-benzyloxy-phenyl)-1-(2-(2-aminoethyl)pyridinecarbamoyl)-ethyl]-amide] as the compound, how does the IC50 (read-out: IMR 32% of Blockade @) read?
**A.** Its IC50 is 5900 nM.

**Q.** `CCN[C@@H](CC(C)C)C(=O)N[C@@H](Cc1ccc(OCc2ccccc2)cc1)C(=O)NC(C)(C)C` (relative stereo) [Example 100, [S-(R*,R*)]-2-Ethylamino-4-methyl-pentanoic acid [2-(4-benzyloxy-phenyl)-1-tert-butylcarbamoyl-ethyl]-amide] was tested. Which IC50 [2] did it give?
**A.** Its IC50 is 2000 nM.

**Q.** For “[S-(R*,R*)]-4-Methyl-2-(tetrahydropyran-4-yl-amino)-pentanoic acid [2-(4-benzyloxy-phenyl)-1-(4-hydroxy-piperinylcarbamoyl]-amide [Example 131]”, which IC50 [1] is on record?
**A.** The IC50 was 10000 nM.

**Q.** With `CC(C)C[C@H](NC1CCOCC1)C(=O)N[C@@H](Cc1ccc(OCc2ccccc2)cc1)C(=O)NCCCn1ccnc1` (relative stereo) [Example 129, [S-(R*,R*)]-4-Methyl-2-(tetrahydropyran-4-yl-amino)-pentanoic acid [2-(4-benzyloxy-phenyl)-1-(3-imidazol-1-yl-propylcarbamoyl)-ethyl]-amide] as the compound, how does the IC50 [1] read?
**A.** The IC50 was 6300 nM.
